Results on five molecules are retold here after patent publication US20220324835A1 (Nurix Therapeutics, Inc., priority 2018, published 2022).

Where only a bound is given, the exact number is not on record here.

The target in assay [1] is T1, Cbl-b (Homo sapiens, UniProt Q13191). The experiment in a line: Cbl-b inhibition assay (Cbl-b activity assay, FRET, Biological Example 1; 100 mM NaCl, 60 nM Src kinase). The following applies: upper bound stated in text lists; read-out: IC50 values in the Cbl-b inhibition assay of Biological Example 1. In kind it is biochemical. An outline of the steps: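 TR-FRET assay using N-terminal biotinylated Avi-tagged Cbl-b bound to streptavidin-terbium, Src kinase for Cbl-b phosphorylation, and UbcH5B irreversibly conjugated to Bodipy-Fluorescein-ubiquitin. Phosphorylated Cbl-b binds UbcH5B-Ub, bringing the fluorophores together; inhibition is read as loss of FRET signal.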

Assay [2] has as its system T-cell. In words: IL-2 secretion from T-cells co-stimulated with anti-CD3 and anti-CD28 antibody (Biological Example 2). In kind it is cell-based, human. The following applies: Homo sapiens, T-cell, primary human total T-cells, baseline = anti-CD3/anti-CD28 stimulated cells without inhibitor, read-out: IL-2 secretion, Anti-CD3/Anti-CD28 stimulation, fold change over baseline; for fold induction at 0.3 µM: 0.3 μM compound; for fold induction at 1 µM: 1 μM compound; for fold induction at 4 µM: 4 μM compound. An outline of the steps:
(§1)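 T-cells were stimulated with anti-CD3 antibody alone or with anti-CD28 antibody, in the presence or absence of Cbl-b inhibitor. IL-2 secretion or CD25 surface staining was measured, and values expressed as fold over the uninhibited baseline […].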

The subject of assay [3] is T-cell. The experiment in a line: CD25 cell surface staining on T-cells co-stimulated with anti-CD3 and anti-CD28 antibody (Biological Example 2). In kind it is cell-based, human. The following applies: Homo sapiens, T-cell, primary human total T-cells, baseline = anti-CD3/anti-CD28 stimulated cells without inhibitor, read-out: CD25 staining, Anti-CD3/Anti-CD28 stimulation, fold change over baseline; for fold induction at 0.3 µM: 0.3 μM compound; for fold induction at 1 µM: 1 μM compound; for fold induction at 4 µM: 4 μM compound. An outline of the steps: as §1

The target in assay [4] is T1, Cbl-b. In words: Cbl-b activity assay (Cbl-b inhibition assay), TR-FRET of Cbl-b interaction with UbcH5B-Ub. In kind it is biochemical. The following applies: assay buffer with 100 mM NaCl, 60 nM Src kinase; read-out: Cbl-b activity IC50. An outline of the steps:
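UbcH5B (C85K) conjugated to N-terminally Bodipy-Fluorescein-labeled ubiquitin served as the fluorescent partner. After compound preincubation, Src kinase (60 nM) with 1 mM ATP and 5 mM MgCl2 (final) was added for 1.5 h, followed by a further 1 h incubation. Some values were obtained with 50 mM NaCl and 30 nM Src.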

For assay [5], the system named is T-cell. The experiment in a line: IL-2 secretion from T-cells stimulated with anti-CD3 antibody alone (Biological Example 2). In kind it is cell-based. The following applies: primary human total T-cells, read-out: IL-2 secretion, Anti-CD3 stimulation, fold change over baseline; for fold induction at 1 µM: 1 μM compound; for fold induction at 8 µM: 8 μM compound.
The subject of assay [6] is T-cell. In words: CD25 cell surface staining on T-cells stimulated with anti-CD3 antibody alone (Biological Example 2). In kind it is cell-based. The following applies: primary human total T-cells, baseline = anti-CD3/anti-CD28 stimulated cells without inhibitor, read-out: CD25 staining, Anti-CD3 stimulation, fold change over baseline; for fold induction at 1 µM: 1 μM compound; for fold induction at 8 µM: 8 μM compound.

T1 sequence (Q13191 36-427): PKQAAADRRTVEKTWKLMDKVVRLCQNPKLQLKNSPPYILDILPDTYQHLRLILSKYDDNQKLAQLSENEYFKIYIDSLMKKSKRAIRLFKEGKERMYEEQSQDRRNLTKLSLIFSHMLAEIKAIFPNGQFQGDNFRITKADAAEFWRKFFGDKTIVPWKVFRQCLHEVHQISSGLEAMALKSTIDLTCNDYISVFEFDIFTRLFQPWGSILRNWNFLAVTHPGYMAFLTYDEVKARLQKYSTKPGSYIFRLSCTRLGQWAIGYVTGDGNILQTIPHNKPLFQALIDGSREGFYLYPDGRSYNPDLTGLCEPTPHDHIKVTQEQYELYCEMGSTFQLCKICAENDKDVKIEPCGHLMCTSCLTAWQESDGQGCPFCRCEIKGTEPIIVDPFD

As to `Cn1cnnc1C[C@]1(c2cccc(N3Cc4c(cccc4C(F)(F)F)C3=O)c2)C[C@H](CO)C1` [Compound 470, 2-{3-[(1R,3R)-3-(hydroxymethyl)-1-[(4-methyl-4H-1,2,4-triazol-3-yl)methyl]cyclobutyl]phenyl}-4-(trifluoromethyl)-2,3-dihydro-1H-isoindol-1-one], the values for the IC50 in assay [1] and in assay [4] were at most 300 nM and 100 to 300 nM, respectively. In addition, the fold induction at 0.3 µM in assay [2] lay within 1.01 to 2.5; in assay [3], 1.31 to 1.5. Moreover, the fold induction at 1 µM in assay [2] was in the range of 2.51 to 5; in assay [3] it was 1.51 to 1.75; in assay [5] it was 0.101 to 0.15; in assay [6] it was 0.801 to 1. Further, the fold induction at 4 µM was 5 to 7.5 in assay [2] and 1.51 to 1.75 in assay [3]. The fold induction at 8 µM was above 0.201 in assay [5] and above 1 in assay [6].

Turning to `C[C@H](Cc1nocc1C(F)(F)F)c1cccc(N2Cc3c(cc(C(=O)N4CC[C@H](O)C4)cc3C(F)(F)F)C2=O)c1` [Compound 484, 6-[(3S)-3-hydroxypyrrolidine-1-carbonyl]-4-(trifluoromethyl)-2-[3-[(2R)-1-[4-(trifluoromethyl)-1,2-oxazol-3-yl]propan-2-yl]phenyl]-2,3-dihydro-1H-isoindol-1-one], the IC50 is at most 300 nM in assay [1] and 100 to 300 nM in assay [4]. The fold induction at 0.3 µM in assay [2] was 1.01 to 2.5; in assay [3], 1.01 to 1.3. The fold induction at 1 µM lay in the range of 1.01 to 2.5 in assay [2], 1.01 to 1.3 in assay [3], 0.051 to 0.1 in assay [5] and 0.601 to 0.8 in assay [6]. The results for the fold induction at 4 µM in assay [2] and in assay [3] were 2.51 to 5 and 1.31 to 1.5, respectively. In addition, the fold induction at 8 µM in assay [5] was above 0.201; in assay [6] it was above 1.

`C[C@H](Cc1nocc1C(F)(F)F)c1cccc(N2Cc3c(cc(CN4CC[C@H](F)C4)cc3C(F)(F)F)C2=O)c1` [Compound 485, 6-[[(3S)-3-fluoropyrrolidin-1-yl]methyl]-4-(trifluoromethyl)-2-[3-[(2R)-1-[4-(trifluoromethyl)-1,2-oxazol-3-yl]propan-2-yl]phenyl]-2,3-dihydro-1H-isoindol-1-one]: the IC50 in assay [1] is at most 300 nM; in assay [4] it was 100 to 300 nM. The fold induction at 0.3 µM in assay [2] lay in the range of 1.01 to 2.5; in assay [3], 1.01 to 1.3. In addition, the fold induction at 1 µM in assay [2] was 1.01 to 2.5; in assay [3] it was 1.01 to 1.3; in assay [5], below 0.05; in assay [6], 0.601 to 0.8. The values for the fold induction at 4 µM in assay [2] and in assay [3] were 2.51 to 5 and 1.31 to 1.5, respectively. The fold induction at 8 µM in assay [5] was 0.101 to 0.15; in assay [6] it was above 1.

Take `Cn1cnnc1CC1(c2cccc(N3Cc4c(cc(CN5CCCC6CC65)cc4C(F)(F)F)C3=O)c2)COC1` (stereo not shown) [Compound 490, 6-((2-azabicyclo[4.1.0]heptan-2-yl)methyl)-2-(3-(3-((4-methyl-4H-1,2,4-triazol-3-yl)methyl)oxetan-3-yl)phenyl)-4-(trifluoromethyl)isoindolin-1-one]: the half-maximal inhibitory concentration (IC50) in assay [1] is at most 100 nM; in assay [4], below 100 nM. The fold induction at 0.3 µM was above 7.5 in assay [2] and 1.01 to 1.3 in assay [3]. The fold induction at 1 µM in assay [2] is above 7.5; in assay [3] it was 1.01 to 1.3; in assay [5], above 0.201; in assay [6], above 1.

Consider `Cn1cnnc1CC1(c2cccc(N3Cc4c(cc(CN5CC6CC6(C)C5)cc4C(F)(F)F)C3=O)c2)COC1` (stereo not shown) [Compound 491, 6-((1-methyl-3-azabicyclo[3.1.0]hexan-3-yl)methyl)-2-(3-(3-((4-methyl-4H-1,2,4-triazol-3-yl)methyl)oxetan-3-yl)phenyl)-4-(trifluoromethyl)isoindolin-1-one], for which the half-maximal inhibitory concentration (IC50) is at most 100 nM in assay [1] and below 100 nM in assay [4]. Also, the figures for the fold induction at 0.3 µM in assay [2] and in assay [3] were above 7.5 and 1.01 to 1.3, respectively. Also, the fold induction at 1 µM is above 7.5 in assay [2], 1.01 to 1.3 in assay [3], above 0.201 in assay [5] and above 1 in assay [6].
